Patent US12139520B2 (priority 2020, dated 2024)
Read-outs that look alike come from different tables or passages of the source. Numbered stars: 1 amine (or outer) side, 2 acyl side, 3 side chain; on linkers, the order of the positions; unused ones are H or OH. Bridge positions count the residues as written; N and C are the ends. Square brackets hold non-standard residues; d marks the D form. Peptide text beside a SMILES is read from it. * marks the point of attachment. C20 diacid = O=C(O)CCCCCCCCCCCCCCCCCCC(=O)*; γGlu = O=C(O)[C@H](CCC(=O)[*:2])N[*:1]; Hyp = O=C(O)[C@@H]1C[C@@H](O)CN1

Legend:
[1] = Physical stability of peptide analogues (Thioflavin T fibrillation); type: physicochemical; conditions: maximum ThT signal normalized between hAMY maximum and buffer background; 40° C., shaking, four days; pH 7 per table title
How it was run: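 Maximum ThT emission at 480 nm, after LOESS smoothing, is given as percent of the span from buffer background to hAMY. Conditions: 50 mM buffer at pH 4 or 7, 4 μM dye, 40 °C, repeated shaking, readings every 10 min for four days.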

[2] = Chronic diet-induced obesity (DIO) study in rats; type: in vivo, rat; conditions: for Average body weight day 28 (gram): P < 0.001 vs vehicle
Source text: General Protocols for Chronic Diet-Induced Obesity (DIO) Study
Sprague-Dawley rats (Taconic, Denmark) arrived at the age of 5 weeks. After one week of acclimation, they were evenly grouped based on their baseline body weight and offered ad libitum access a two-choice diet consisting of chow pellet (Altromin #1324, Brogaarden, Lynge, Denmark) and a high palatable high sugar/fat diet (1:1:1 mixture of Nutella (Ferrero, Alba, Italy), peanut butter (PCD, Rotterdam, Netherlands) and powdered standard chow (Altromin #1324, Brogaarden, Lynge, Denmark); 29.3% fat, 33.2% carbohydrate, and 18% protein) for up to 36 weeks. The rats were pair-housed throughout the study under controlled environmental conditions (12-hour light/dark cycle, lights off at 15:00; 22±1° C.; 50±10% relative humidity). Body weight, food and water intake were monitored daily during the entire period of the study. One day before the experiment, the rats were randomized according to body weight into experimental groups (n=9-10), which received compound or vehicle SC. QD (once daily) for 28 days.

hAMY3 receptor = molecular target: T1, hAMY3 receptor (Homo sapiens, UniProt O60896+P30988); assay: cAMP assay for in vitro receptor activation, hAMY3-R; type: cell-based
T1 sequence (P30988 25-474): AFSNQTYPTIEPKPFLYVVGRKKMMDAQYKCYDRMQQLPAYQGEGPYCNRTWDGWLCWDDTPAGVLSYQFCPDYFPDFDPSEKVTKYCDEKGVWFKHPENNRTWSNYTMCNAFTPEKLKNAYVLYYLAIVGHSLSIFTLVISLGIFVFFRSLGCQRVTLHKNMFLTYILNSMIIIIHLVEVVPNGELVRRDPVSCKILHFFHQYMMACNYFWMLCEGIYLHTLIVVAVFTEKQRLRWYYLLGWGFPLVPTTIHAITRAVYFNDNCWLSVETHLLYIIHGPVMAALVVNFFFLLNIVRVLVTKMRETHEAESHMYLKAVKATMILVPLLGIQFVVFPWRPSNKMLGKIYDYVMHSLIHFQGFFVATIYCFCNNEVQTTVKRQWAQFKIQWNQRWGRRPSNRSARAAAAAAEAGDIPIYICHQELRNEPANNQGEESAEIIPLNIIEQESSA
T1 sequence (O60896 24-148 partner): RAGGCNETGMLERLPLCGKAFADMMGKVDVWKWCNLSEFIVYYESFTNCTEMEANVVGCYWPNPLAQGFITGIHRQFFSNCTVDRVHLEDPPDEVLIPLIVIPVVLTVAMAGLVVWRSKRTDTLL
How it was run: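 Thawed cells from a sub-cloned monoclonal hAMY3-overexpressing line are plated in DPBS containing 0.05% casein and 0.5 mM IBMX. Test compounds are added immediately at graded doses for 30 min at room temperature. Reagents for cAMP detection are then added, and TR-FRET is recorded after one hour.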

[3] = Acute food intake study in lean rats; type: in vivo, rat; conditions: single SC injection, lean healthy rats; for Average cumulative food intake: up to 48 h, P < 0.001 vs vehicle
hAM1 receptor = hAM1 receptor (Homo sapiens, UniProt O60895+Q16602); assay: cAMP assay for in vitro receptor activation, hAM1-R; type: cell-based
How it was run: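 cAMP accumulation was measured in a monoclonal cell line stably overexpressing the hAM1 receptor. Frozen aliquots were thawed and plated at 8000 cells/well in DPBS containing 0.05% casein and 0.5 mM IBMX.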

[4] = 1 nmol/kg SC once daily for 28 days
[5] = 3 nmol/kg SC once daily for 28 days
[6] = 10 nmol/kg SC once daily for 28 days
[7] = cAMP assay, hAMY3 receptor, read-out: hAMY3R EC50

Chain of hAM1 receptor (Q16602 23-461): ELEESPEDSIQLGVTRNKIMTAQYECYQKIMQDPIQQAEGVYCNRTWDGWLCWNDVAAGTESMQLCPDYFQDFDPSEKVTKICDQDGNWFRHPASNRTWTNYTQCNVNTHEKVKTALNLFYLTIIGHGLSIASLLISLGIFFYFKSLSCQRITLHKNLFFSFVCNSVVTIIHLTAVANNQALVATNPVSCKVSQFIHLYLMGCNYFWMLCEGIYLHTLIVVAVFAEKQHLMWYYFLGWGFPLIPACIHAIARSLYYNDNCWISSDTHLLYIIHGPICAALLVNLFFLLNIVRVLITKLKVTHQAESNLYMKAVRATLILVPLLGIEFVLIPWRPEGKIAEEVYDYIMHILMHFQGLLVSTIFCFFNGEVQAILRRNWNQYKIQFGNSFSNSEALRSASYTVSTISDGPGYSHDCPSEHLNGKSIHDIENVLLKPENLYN
Chain of hAM1 receptor (O60895 43-175 partner): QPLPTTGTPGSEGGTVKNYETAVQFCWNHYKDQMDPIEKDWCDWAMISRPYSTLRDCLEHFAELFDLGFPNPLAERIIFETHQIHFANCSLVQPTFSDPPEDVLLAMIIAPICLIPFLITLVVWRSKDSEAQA

Compound | Max ThT signal (%) [1] [%] | body weight day 28, % to vehicle [2, 4] [%] | Average body weight day 28 (gram) [2, 4] [gram] | body weight day 28, % to vehicle [2, 5] [%] | Average body weight day 28 (gram) [2, 5] [gram] | body weight day 28, % to vehicle [2, 6] [%] | Average body weight day 28 (gram) [2, 6] [gram] | EC50 (hAMY3 receptor; [7]) [nM] | cumulative food intake, % to vehicle ([3]; 10 nmol/kg) [%] | Average cumulative food intake ([3]; 10 nmol/kg) [g] | cumulative food intake, % to vehicle ([3]; 30 nmol/kg) [%] | Average cumulative food intake ([3]; 30 nmol/kg) [g] | EC50 (hAM1 receptor) [nM] | EC50 (hAMY3 receptor) [nM] | EC50 (hAM1 receptor; cAMP assay, hAM1 receptor, read-out: hAM1R EC50) [nM]
CC[C@H](C)[C@H](NC(=O)[C@H](CC(N)=O)NC(=O)[C@@H](NC(=O)[C@H](CCCNC(=N)N)NC(=O)[C@@H]1CCCN1C(=O)[C@H](C)NC(=O)[C@@H](NC(=O)[C@H](CC(N)=O)NC(=O)[C@H](CC(=O)O)NC(=O)[C@H](CCCCN)NC(=O)[C@H](CC(=O)O)NC(=O)[C@H](CCCCN)NC(=O)[C@H](CC(=O)O)NC(=O)[C@@H](NC(=O)[C@H](Cc1ccccc1)NC(=O)[C@H](CCC(N)=O)NC(=O)[C@H](Cc1ccc(O)cc1)NC(=O)[C@@H](NC(=O)[C@H](CCC(N)=O)NC(=O)[C@H](Cc1c[nH]cn1)NC(=O)[C@H](C)NC(=O)[C@H](CC(C)C)NC(=O)[C@H](CCCNC(=N)N)NC(=O)[C@H](CCC(N)=O)NC(=O)[C@@H](NC(=O)[C@@H](NC(=O)[C@@H]1CSSC[C@H](NC(=O)CN)C(=O)N[C@@H](CCCNC(=N)N)C(=O)N[C@@H](Cc2ccccc2)C(=O)NCC(=O)N[C@@H]([C@@H](C)O)C(=O)N1)[C@@H](C)O)C(C)C)[C@@H](C)CC)[C@@H](C)O)C(C)C)[C@@H](C)O)C(=O)NCC(=O)N1CCC[C@H]1C(=O)N[C@@H](CCC(N)=O)C(=O)NCC(=O)N1C[C@H](O)C[C@H]1C(N)=O [compound 46] (H-GCRFGTCTVQRLAHQIYQFTDKDKDNVAPRTNIGPQG[Hyp]-NH2; disulfide 2-7; N-terminus assumed) | 5.800 | 94.13 | 674 | 86.59 | 620 | 86.31 | 618 | 0.011 | 52.48 | 23.3 | 24.10 | 10.7 | – | – | –
CC[C@H](C)[C@H](NC(=O)[C@H](CCC(N)=O)NC(=O)[C@H](CCC(=O)O)NC(=O)[C@H](C)NC(=O)[C@H](CC(C)C)NC(=O)[C@H](CCCNC(=N)N)NC(=O)[C@H](CCC(N)=O)NC(=O)[C@@H](NC(=O)[C@@H](NC(=O)[C@@H]1CSSC[C@H](NC(=O)[C@H](CCCCN)NC(=O)CC[C@H](NC(=O)CCCCCCCCCCCCCCCCCCC(=O)O)C(=O)O)C(=O)N[C@@H](CC(N)=O)C(=O)N[C@@H]([C@@H](C)O)C(=O)N[C@@H](C)C(=O)N[C@@H]([C@@H](C)O)C(=O)N1)[C@@H](C)O)C(C)C)C(=O)N[C@@H](C)C(=O)N[C@@H](CCC(N)=O)C(=O)N[C@@H](Cc1ccccc1)C(=O)N[C@H](C(=O)N[C@@H](CC(=O)O)C(=O)N[C@@H](CCCCN)C(=O)N[C@@H](CC(=O)O)C(=O)N[C@@H](CCCCN)C(=O)N[C@@H](CC(=O)O)C(=O)N[C@@H](CC(N)=O)C(=O)N[C@H](C(=O)N[C@@H](C)C(=O)N1CCC[C@H]1C(=O)N1CCC[C@H]1C(=O)N[C@H](C(=O)N[C@@H](CC(N)=O)C(=O)N[C@H](C(=O)NCC(=O)N[C@@H](CO)C(=O)N[C@@H](CC(N)=O)C(=O)NCC(=O)N1C[C@H](O)C[C@H]1C(N)=O)C(C)C)[C@@H](C)O)C(C)C)[C@@H](C)O [compound 78] ({C20 diacid-γGlu}-KCNTATCTVQRLAEQIAQFTDKDKDNVAPPTNVGSNG[Hyp]-NH2; disulfide 2-7) | – | – | – | – | – | 88.53 | 687 | – | 33.66 | 13.7 | – | – | > 5000 | 0.014 | –
CC[C@H](C)[C@H](NC(=O)[C@H](C)NC(=O)CNC(=O)[C@H](Cc1ccccc1)NC(=O)[C@H](CC(N)=O)NC(=O)[C@H](CC(N)=O)NC(=O)[C@H](CO)NC(=O)[C@H](CO)NC(=O)[C@H](Cc1c[nH]cn1)NC(=O)[C@@H](NC(=O)[C@H](CC(C)C)NC(=O)[C@H](Cc1ccccc1)NC(=O)[C@H](CC(N)=O)NC(=O)[C@H](C)NC(=O)[C@H](CC(C)C)NC(=O)[C@H](CCCNC(=N)N)NC(=O)[C@H](CCC(N)=O)NC(=O)[C@@H](NC(=O)[C@H](C)NC(=O)[C@@H]1CSSC[C@H](NC(=O)[C@@H](N)CCCCN)C(=O)N[C@@H](CC(N)=O)C(=O)N[C@@H]([C@@H](C)O)C(=O)N[C@@H](C)C(=O)N[C@@H]([C@@H](C)O)C(=O)N1)[C@@H](C)O)C(C)C)C(=O)N[C@@H](C)C(=O)N1CCC[C@H]1C(=O)N[C@@H](CO)C(=O)N[C@H](C(=O)N[C@@H](CCCCN)C(=O)N[C@H](C(=O)NCC(=O)N[C@@H](CO)C(=O)N[C@@H](CC(N)=O)C(=O)NCC(=O)N[C@@H](Cc1ccc(O)cc1)C(N)=O)C(C)C)[C@@H](C)O [compound 93] (H-KCNTATCATQRLANFLVHSSNNFGAIAPSTKVGSNGY-NH2; disulfide 2-7; N-terminus assumed) | – | – | – | – | – | – | – | 0.016 | 46.93 | 19.1 | – | – | – | – | > 5000
